# Measurements: patent US12171755B2, “PAPD5 inhibitors and methods of use thereof” (Children's Medical Center Corporation, priority 2017, dated 2024)
# Molecular target: T1, PAPD5 (Homo sapiens, UniProt Q8NDF8)
# T1 construct: made in house
# Assay: High-throughput luminescence (KinaseGlo) RNA polyadenylation assay, ATP utilization by recombinant PAPD5
# Type: biochemical
# Details: Table 4 (entries of Table 5), ratio of luminescence with inhibitor to DMSO; for Fold-change determined at compound concentration 33 μM: 33 μM compound; for Fold-change determined at compound concentration 100 μM: 100 μM compound, higher = higher inhibition; for Fold-change determined at compound concentration 10 μM: 10 μM compound
# Method in brief: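 Recombinant PAPD5 polyadenylates an oligonucleotide substrate using ATP, and remaining ATP is read by KinaseGlo luciferase luminescence. Compound was incubated for 2 h at room temperature, then with luciferase for 10 min.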
# T1 sequence (Q8NDF8 68-698 isoform Q8NDF8-5): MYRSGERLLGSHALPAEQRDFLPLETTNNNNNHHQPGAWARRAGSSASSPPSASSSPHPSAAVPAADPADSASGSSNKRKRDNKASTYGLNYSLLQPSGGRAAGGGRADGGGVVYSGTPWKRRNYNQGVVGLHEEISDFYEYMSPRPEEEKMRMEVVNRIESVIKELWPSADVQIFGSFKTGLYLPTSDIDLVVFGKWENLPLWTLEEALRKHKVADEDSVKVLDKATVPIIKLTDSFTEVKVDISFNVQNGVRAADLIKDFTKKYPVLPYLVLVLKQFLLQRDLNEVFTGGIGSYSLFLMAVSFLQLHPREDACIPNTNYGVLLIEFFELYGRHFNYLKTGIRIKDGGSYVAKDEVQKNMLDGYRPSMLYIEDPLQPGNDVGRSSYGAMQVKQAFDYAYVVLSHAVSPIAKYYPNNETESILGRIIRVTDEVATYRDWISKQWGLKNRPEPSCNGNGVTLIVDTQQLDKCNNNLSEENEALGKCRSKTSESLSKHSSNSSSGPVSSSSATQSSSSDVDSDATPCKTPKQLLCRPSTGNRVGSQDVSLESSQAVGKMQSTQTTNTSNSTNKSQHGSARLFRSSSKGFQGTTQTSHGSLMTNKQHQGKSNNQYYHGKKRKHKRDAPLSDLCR
Structure (SMILES),Fold-change determined at compound concentration 33 μM,Fold-change determined at compound concentration 100 μM,Fold-change determined at compound concentration 10 μM
"Cc1ccc2cc(-c3noc(CCC(=O)Nc4nccs4)n3)c(O)nc2c1 [Entry 94, 3-[3-(2-hydroxy-7-methylquinolin-3-yl)-1,2,4-oxadiazol-5-yl]-N-1,3-thiazol-2-ylpropanamide]",1.294,1.926,
"CC1=NCCc2c1[nH]c1ccccc21 [Entry 113, 1-Methyl-4,9-dihydro-3H-beta-carboline]",1.202,1.674,
"CCOC(=O)c1c(C)nc2n(C)c3ccccc3n12 [Entry 228, ethyl 2,9-dimethyl-9H-benzo[d]imidazo[1,2-a]imidazole-3-carboxylate]",1.146,1.3,
"O=C(NCc1ccncc1)C1CCCN(c2ncnc3c2oc2ccccc23)C1 (stereo not shown) [Entry 36, 1-([1]benzofuro[3,2-d]pyrimidin-4-yl)-N-(pyridin-4-ylmethyl)piperidine-3-carboxamide]",1.096,1.239,
"CCOc1cc(C2CC(=O)Nc3c2sc(C(=O)O)c3-c2cccc(F)c2)ccc1OCC(N)=O (stereo not shown) [Entry 198, 7-[4-(2-amino-2-oxoethoxy)-3-ethoxyphenyl]-3-(3-fluorophenyl)-5-oxo-4,5,6,7-tetrahydrothieno[3,2-b]pyridine-2-carboxylic acid]",1.084,1.264,
"Cc1ccccc1CSc1nc(=O)c2[nH]cnc2[nH]1 [Entry 163, 2-[(2-methylphenyl)methylsulfanyl]-3,7-dihydropurin-6-one]",1.109,1.287,
"CCCc1cc(=O)n2nc(CNc3ccc(Cl)cc3)nc2[nH]1 [Entry 155, 2-{[(4-chlorophenyl)amino]methyl}-5-propyl[1,2,4]triazolo[1,5-a]pyrimidin-7(4H)-one]",1.097,1.372,
"COc1ccc(-c2nc(N3CCOCC3)c3sc(CN(C)c4ncc(C(=O)NO)cn4)cc3n2)cn1 [Entry 42, N-hydroxy-2-[[2-(6-methoxypyridin-3-yl)-4-morpholin-4-ylthieno[3,2-d]pyrimidin-6-yl]methyl-methylamino]pyrimidine-5-carboxamide]",1.905,2.528,1.382
"O=c1cc(-c2cccc3c2Sc2ccccc2S3)oc(N2CCOCC2)c1 [Entry 243, 2-morpholin-4-yl-6-thianthren-1-ylpyran-4-one]",1.324,1.471,
"COc1cc(NS(=O)(=O)c2ccc3oc(=O)c4ncn(C)c4c3c2)cc(OC)c1 [Entry 223, N-(3,5-dimethoxyphenyl)-1-methyl-4-oxochromeno[3,4-d]imidazole-8-sulfonamide]",1.207,1.254,
"CCOc1cc(-c2cc(C(=O)O)c3c(-c4ccccc4)[nH]nc3n2)ccc1O [Entry 181, 6-(3-ethoxy-4-hydroxyphenyl)-3-phenyl-2H-pyrazolo[3,4-b]pyridine-4-carboxylic acid]",1.124,1.272,
"Nc1nc(N2CCCC2)nc2ccccc12 [Entry 33, 2-(1-pyrrolidinyl)-4-quinazolinamine]",1.175,1.505,
"COc1cccc(NC(=O)c2ccc3c(=O)n4nc(Nc5ccccc5OC)sc4nc3c2)c1 [Entry 218, 2-(2-methoxyanilino)-N-(3-methoxyphenyl)-5-oxo-[1,3,4]thiadiazolo[2,3-b]quinazoline-8-carboxamide]",1.096,1.304,
"CCCNC(=O)CSc1c2c(nc3ccc(Cl)cc13)CCCC2 [Entry 90, 2-[(7-chloro-1,2,3,4-tetrahydroacridin-9-yl)sulfanyl]-N-propylacetamide]",1.105,1.253,
"NC(=O)C1CCN(c2ncnc3sc4c(c23)CCCC4)CC1 [Entry 43, 1-(5,6,7,8-tetrahydro[1]benzothieno[2,3-d]pyrimidin-4-yl)piperidine-4-carboxamide]",1.648,2.294,1.292
"c1cc(CNc2ncnc3sc4c(c23)CCCC4)ccn1 [Entry 41, N-(pyridin-4-ylmethyl)-5,6,7,8-tetrahydro[1]benzothieno[2,3-d]pyrimidin-4-amine]",1.621,2.279,1.249
"CCS(=O)(=O)c1nc2ccc(NS(=O)(=O)c3ccc(F)c(F)c3)cc2s1 [Entry 206, N-(2-(ethylsulfonyl)benzo[d]thiazol-6-yl)-3,4-difluorobenzenesulfonamide]",1.08,1.225,
"Cc1c(C(=O)NCc2ccccc2)oc2c1-c1[nH]ncc1CC2 [Entry 175, N-benzyl-8-methyl-4,5-dihydro-1H-furo[2,3-g]indazole-7-carboxamide]",1.094,1.352,
"Cc1cccc2c1-c1sc(C(=O)NCCCN3CCC(C)CC3)cc1CO2 [Entry 226, 9-methyl-N-[3-(4-methylpiperidin-1-yl)propyl]-4H-thieno[3,2-c]chromene-2-carboxamide]",1.095,1.228,
"COc1cc(C2CC(=O)Nc3c2sc(C(=O)O)c3-c2cccc(F)c2)ccc1OCC(N)=O (stereo not shown) [Entry 197, 7-[4-(2-amino-2-oxoethoxy)-3-methoxyphenyl]-3-(3-fluorophenyl)-5-oxo-4,5,6,7-tetrahydrothieno[3,2-b]pyridine-2-carboxylic acid]",1.142,1.412,
"O=S(=O)(Nc1ccc2nncn2n1)c1ccc(Br)cc1 [Entry 49, 4-bromo-N-([1,2,4]triazolo[4,3-b]pyridazin-6-yl)benzenesulfonamide]",1.105,1.318,
"COc1ccc(NC(=O)c2ccc3c(SCC(=O)O)c4c(nc3c2)CCCC4)c(OC)c1 [Entry 88, [(6-{[(2,4-dimethoxyphenyl)amino]carbonyl}-1,2,3,4-tetrahydroacridin-9-yl)thio]acetic acid]",1.082,1.276,
"Cc1cc(C)c2c(=O)cc(C(=O)Nc3ccc(S(=O)(=O)Nc4onc(C)c4C)cc3)oc2c1 [Entry 115, N-[4-[(3,4-dimethyl-1,2-oxazol-5-yl)sulfamoyl]phenyl]-5,7-dimethyl-4-oxochromene-2-carboxamide]",1.316,1.777,
"Cc1ccc(S(=O)(=O)NCc2ccc(-c3nn4cnnc4s3)cc2)cc1 [Entry 216, 4-methyl-N-[[4-([1,2,4]triazolo[3,4-b][1,3,4]thiadiazol-6-yl)phenyl]methyl]benzenesulfonamide]",1.103,1.239,
"Cn1c(=O)c2nc(SCCC(=O)O)n(Cc3ccc(F)cc3)c2n(C)c1=O [Entry 78, 3-{[9-(4-fluorobenzyl)-1,3-dimethyl-2,6-dioxo-2,3,6,9-tetrahydro-1H-purin-8-yl]sulfanyl}propanoic acid]",1.05,1.26,
"O=C(Nc1c(-c2ccccc2)nc2ccccn12)c1ccc(Br)cc1 [Entry 191, 4-bromo-N-(2-phenylimidazo[1,2-a]pyridin-3-yl)benzamide]",1.225,1.296,
"COc1ccc(NS(=O)(=O)c2cc3[nH]c(=O)c(=O)[nH]c3cc2C)cc1Cl [Entry 135, N-(3-chloro-4-methoxyphenyl)-7-methyl-2,3-dioxo-1,4-dihydroquinoxaline-6-sulfonamide]",1.191,1.347,
"COc1ccc(OC)c2sc(N(CCCN(C)C)C(=O)c3ccco3)nc12 [Entry 207, N-(4,7-dimethoxy-1,3-benzothiazol-2-yl)-N-[3-(dimethylamino)propyl]furan-2-carboxamide]",1.118,1.2,
"O=C(O)C1Nc2ccc(Cl)cc2C2C=CCC12 (stereo not shown) [Entry 98, 8-Chloro-3a,4,5,9b-tetrahydro-3H-cyclopenta[c]quinoline-4-carboxylic acid]",1.97,2.765,
